Values of other authors in patent US4916163A, “Spray-dried lactose formulation of micronized glyburide” (The Upjohn Company, priority 1985, dated 1990).

System: Type II (adult-onset) diabetes mellitus
Details: in words, background

Compound: COc1ccc(Cl)cc1C(=O)NCCc1ccc(S(=O)(=O)NC(=O)NC2CCCCC2)cc1 [glyburide, N-[4-(β-[2-methoxy-5-chloro-benzamido]-ethyl)-benzenesulfonyl]-N'-cyclohexyl-urea]
- Reduction of serum glucose concentrations: effective in reducing serum glucose concentrations
